The values below come from patent publication US20120052555A1, “ENRICHMENT OF LISTERIA SPP” (SAMSUNG TECHWIN CO., LTD., priority 2010, published 2012).

In test [1] the test system is L. grayi strains. Nature of the test: Culture of five L. grayi strains in the presence of antibiotics. It is filed as cell-based, Listeria grayi. The conditions noted are these: 35° C. in Minimal Media A1; 10 mg/L acriflavine, 40 mg/L nalidixic acid, 10 mg/L polymyxin B, 40 mg/L ceftazidime. Here is the method:
Separately, five L. grayi strains were cultured at 35° C. in the Minimal Media A1 supplemented separately with 10 mg/L of acriflavine, 40 mg/L of nalidixic acid, 10 mg/L of polymyxin B, 40 mg/L of ceftazidime, and a combination thereof. As a result, the effects of each antibiotic on the growth of L. grayi were trivial. […] The two strains reached maximum cell densities within about 24 hours.

For test [2], the system named is background microflora. Nature of the test: Effects of antibiotics on background microflora of ground beef (aerobic plate counts). The test is classed as cell-based. The conditions noted are these: 10 g/L ground beef, 35° C., Minimal Media A; among the four antibiotics. Here is the method: In addition, effects of antibiotics on background microflora were investigated. First, 10 g/L of ground beef was cultured at 35° C. in the Minimal Media A supplemented separately with 10 mg/L of acriflavine, 40 mg/L of nalidixic acid, 10 mg/L of polymyxin B, 40 mg/L of ceftazidime, and a combination thereof. The cell concentrations before and after culture were determined based on aerobic plate counts. The aerobic plate counts were determined by inoculating 100 μL of the culture products into Difco® Plate Count agar medium, culturing the mixture at 35° C. for 24 hours, and counting cell colonies
FIG. 3 is a graph illustrating the effects of antibiotics on background microflora. Referring to FIG. 3, the growth of the background microfluora was inhibited about 100 times more strongly when the four antibiotics were added together, than when they were used individually.

Test [3] relates to heat-injured Listeria monocytogenes. Nature of the test: Recovery of sub-lethally heat-injured Listeria cells on Minimal Medium A1 agar. It is filed as cell-based. Conditions: cells heated 50° C. 10 minutes; for effect in recovering heat-injured Listeria spp.: Minimal Medium supplemented with the agent. As for the experimental part: Most Listeria infection cases are associated with pasteurized dairy products. Therefore, the effects of the Minimal Medium A1 on the recovery of sub-lethally heat-injured Listeria spp. were investigated. Overnight-cultured Listeria monocytogenes was serially diluted by 10 folds with PBS. 1 mL of the culture suspension (about 3780 CFU) was cultured at 50° C. for 10 minutes, and 0.1 mL of the culture product was inoculated on the Minimal Medium A1 in agar plate (1.5% agar) in the presence or non-presence of selective agents.
FIG. 4 is a graph illustrating the effects of medium ingredients on the recovery of heat-injured Listeria spp. […] In FIG. 4, “Pyruvate” indicates a Minimal Medium A1 supplemented with sodium pyruvate, “A1-NONE” indicates a Minimal Medium A1 supplemented with none, and “BHI-NONE” indicates a brain heart infusion medium supplemented with none. “Acriflavine,” “Nalidixic acid,” “Polymyxin B,” “Ceftazidime” and “All” denote Minimal Media A supplemented with […], 40 mg/L of nalidixic acid, 10 mg/L of polymyxin B, 40 mg/L of ceftazidime, and all of these antibiotics, respectively.

The subject of test [4] is Listeria monocytogenes. Nature of the test: Effect of LiCl concentration in Minimal Medium A1 on cell growth (PCR Cp). The conditions noted are these: LiCl 1, 3, 5, 7, 9 or 10 g/L in Minimal Medium A1. It is filed as cell-based. Here is the method:
300 μL of overnight cultures (about of 3×10^9 CFU/ml) of Listeria monocytogenes in a brain hear infusion (BHI) medium was added into 30 mL of each of the pre-warmed media in 250 ml glass flask. Each mixture was cultured without shaking at 35° C. for 24 hours. Aliquots (20 μL) of the culture products were collected from each container after culture for 1, 2, 3, 4, 5, 6, 7, 8, 9 and 24 hours, respectively. Each culture product was treated with a TZ lysis buffer with 1 mg/ml proteinase K, and incubated at 55° C. for 15 min, 95° C. for 10 min, and cooled at 4° C. for 2 min. Cell lysates were added into the PCR mixture for real-time PCR. The PCR mixture contained forward and reverse primers of SEQ ID NOs. 5 and 6, the probe of SEQ ID No. 7, and the RNase H. The primers and probe were specific to the InlA gene of L. monocytogenes. The 5′ and 3′ ends of the probe were labeled with FAM and Iowa BFQ ([…]), respectively.
The PCR conditions were as follows: UNG activation at 37° C. for 600 seconds; Denaturation at 95° C. for 600 seconds; Denaturation at 95° C. for 15 seconds; and annealing and elongation at 60° C. for 20 seconds (50 cycles). […]

Entries after “also recorded” stand apart in the source; their conditions may differ.

As to `CCn1cc(C(=O)O)c(=O)c2ccc(C)nc21` [nalidixic acid], the “effect on the growth of L. grayi” value in test [1] was “trivial”. Besides, in test [2], the “inhibitory effect on cell growth of background microflora” value is given as “strongest inhibitory effect on cell growth”.
Regarding polymyxin B, the “effect on the growth of L. grayi” value in test [1] is listed as “trivial”. Also, the “effect in recovering heat-injured Listeria spp.” value in test [3] is on record as “positive effects”.
With `CC(C)(O/N=C(\C(=O)N[C@@H]1C(=O)N2C(C(=O)[O-])=C(C[n+]3ccccc3)CS[C@H]12)c1csc(N)n1)C(=O)O` [ceftazidime], the “effect on the growth of L. grayi” value in test [1] is “trivial”. Besides, the “effect in recovering heat-injured Listeria spp.” value in test [3] is “positive effects”.
For acriflavine, in that order: “trivial” and “positive effects”.
Regarding `CC(=O)C(=O)[O-].[Na+]` [sodium pyruvate], in test [3] (10 g/L of sodium pyruvate compared to 10 mM of MgCl2), the “recovery rate of heat-injured Listeria spp.” value is “recovery rate was improved”. Further, in test [3], the “effect in recovering heat-injured Listeria spp.” value is “positive effects”.
As for `[Cl-].[Li+]` [LiCl, lithium chloride], the “effect of LiCl concentration on Cp values / cell growth” value in test [4] is “high LiCl concentration helped recovery of Listeria; also recorded: the smaller the Cp values and the more the cell growth was enhanced”.
